# Source: patent US6911449B2, “Inhibition of matrix metalloproteases by substituted biaryl oxobutyric acids” (Bayer Pharmaceuticals Corporation, priority 1996, dated 2005)
# Experiments:
# MMP-9 = biological target: T1, MMP-9 (Homo sapiens, UniProt P14780); test: P218 quenched fluorescence assay for MMP inhibition, MMP-9; format: biochemical; conditions: 6 μM P218 substrate, 25 min at 37° C., pH 6.5; read-out: MMP-9 Fluorogenic IC50
# T1 construct: made in house
# Excerpt: (§1) P218 Quenched Fluorescence Assay for MMP Inhibition:
# (§2) The P218 quenched fluorescence assay (Microfluorometric Profiling Assay) is a modification of that originally described by Knight, et al., FEBS Lett. 296, 263 (1992) for a related substance and a variety of matrix metalloproteinases (MMPs) in cuvettes. The assay was run with each invention compound and the three MMPs, MMP-3, MMP-9 and MMP-2, analyzed in parallel, adapted as follows for a 96-well microtiter plate and a Hamilton AT® workstation.
# (§3) P218 Fluorogenic Substrate: P218 is a synthetic substrate containing a 4-acetyl-7-methoxycoumarin (MCA) group in the N-terminal position and a 3-[2,4-dinitrophenyl]-L-2,3-diaminopropionyl (DPA) group internally. This is a modification of a peptide reported by Knight (1992) that was used as a substrate for matrix metalloproteinases. Once the P218 peptide is cleaved (putative clip site at the Ala-Leu bond), the fluorescence of the MCA group can be detected on a fluorometer with excitation at 328 nm and emission at 393 nm. P218 is currently being produced BACHEM exclusively for Bayer. P218 has the structure:
# (§4) H-MCA-Pro-Lys-Pro-Leu-Ala-Leu-DPA-Ala-Arg-NH2 (MW 1332.2)
# Preparation of Human Recombinant Pro-Gelatinase B (MMP-9):
# Recombinant Human Pro-MMP-9: Human pro-gelatinase B (pro-MMP-9) derived from U937 cDNA as described by Wilhelm, et al. J. Biol. Chem. 264, 17213 (1989) was expressed as the full-length form using a baculovirus protein expression system. The pro-enzyme was purified using methods previously described by Hibbs, et al. J. Biol. Chem. 260, 2493 (1984).
# Activation of Pro-MMP-9: […] 20 μg/mL in 50 mM Tris at pH 7.4, 10 mM CaCl2, 150 mM NaCl, and 0.005% Brij-35 (MMP-9 activation buffer) was activated by incubation with 0.5 mM p-aminophenylmercuric acetate (APMA) for 3.5 h at 37° C. The enzyme was dialyzed against the same buffer to remove the APMA.
# (§5) Hamiltion Microlab AT Plus: The MMP-Profiling Assay is performed robotically on a Hamilton MicroLab AT Plus®. The Hamilton is programmed to: (1) serially dilute up to 11 potential inhibitors automatically from a 2.5 mM stock in 100% DMSO; (2) distribute substrate followed by inhibitor into a 96 well Cytofluor plate; and (3) add a single enzyme to the plate with mixing to start the reaction. Subsequent plates for each additional enzyme are prepared automatically by beginning the program at the substrate addition point, remixing the diluted inhibitors and beginning the reaction by addition of enzyme. In this way, all MMP assays were done using the same inhibitor dilutions.
# (§6) Millipore Cytofluor II. Following incubation, the plate was read on a Cytofluor II fluorometric plate reader with excitation at 340 nm and emission at 395 nm with the gain set at 80.
# (§7) Microfluorometric Reaction Buffer (MRB): Dilution of test compounds, enzymes, and P218 substrate for the microfluorometric assay were made in microfluorometric reaction buffer consisting of 50 mM 2-(N-morpholino)ethanesulfonic acid (MES) at pH 6.5 with 10 mM CaCl2, […] NaCl, 0.005% Brij-35 and 1% DMSO.
# (§8) MMP Microfluorometric Profiling Assay. The assay is done with a final substrate concentration of 6 μM P218 and approximately 0.5 to 0.8 nM MMP with variable drug concentrations. The Hamilton is programmed to serially dilute up to 11 compounds from a 2.5 mM stock (100% DMSO) to 10× the final compounds concentrations in the assay. Initially, the instrument delivers various amounts of microfluoromentric reaction buffer (MRB) to a 96 tube rack of 1 ml Marsh dilution tubes. The instrument then picks up 20 μl of inhibitor (2.5 mM) from the sample rack and mixes it with a buffer in row A of the Marsh rack, resulting in a 50 μM drug concentration. The inhibitors are then serially diluted to 10, 5, 1, 0.2, 0.05 and 0.01 μM. […]
# MMP-2 = MMP-2 (Homo sapiens, UniProt P08253); test: biochemical; conditions: MMP-2 Fluorogenic IC50
# MMP-3 = biological target: T2, MMP-3 (Homo sapiens, UniProt P08254); test: P218 quenched fluorescence assay for MMP inhibition, MMP-3; format: biochemical; conditions: 6 μM P218 substrate, 25 min at 37° C., pH 6.5; read-out: MMP-3 Fluorogenic IC50
# T2 construct: made in house; host or cells: CHO cells
# Excerpt: as §1, §2, §3, §4
# Recombinant Human CHO Stromelysin (MMP-3)
# Recombinant Human CHO Pro-MMP-3: Human CHO pro-stromelysin-257 (pro-MMP-3) was expressed and purified as described by Housley, et al., J. Biol. Chem. 268, 4481 (1993).
# Activation of Pro-MMP-3: Pro-MMP-3 at 1.72 μM (100 μg/mL) in 5 mM Tris at pH 7.5, 5 mM CaCl2, 25 mM NaCl, and 0.005% Brij-35 (MMP-3 activation buffer) was activated by incubation with TPCK (N-tosyl-(L)-phenylalanine chloromethyl ketone) trypsin (1:100 w/w to pro-MMP-3) at 25° C. for 30 min. The reaction was stopped by addition of soybean trypsin inhibitor (SBTI; 5:1 w/w to trypsin concentration). This activation protocol results in the formation of 45 kDa active MMP-3, which still contains the C-terminal portion of the enzyme.
# as §5, §6, §7, §8
# [1] = Child, et al., J. Pharm. Sci., 66, 466 (1977); cited from earlier work
# T2 sequence (P08254 100-477): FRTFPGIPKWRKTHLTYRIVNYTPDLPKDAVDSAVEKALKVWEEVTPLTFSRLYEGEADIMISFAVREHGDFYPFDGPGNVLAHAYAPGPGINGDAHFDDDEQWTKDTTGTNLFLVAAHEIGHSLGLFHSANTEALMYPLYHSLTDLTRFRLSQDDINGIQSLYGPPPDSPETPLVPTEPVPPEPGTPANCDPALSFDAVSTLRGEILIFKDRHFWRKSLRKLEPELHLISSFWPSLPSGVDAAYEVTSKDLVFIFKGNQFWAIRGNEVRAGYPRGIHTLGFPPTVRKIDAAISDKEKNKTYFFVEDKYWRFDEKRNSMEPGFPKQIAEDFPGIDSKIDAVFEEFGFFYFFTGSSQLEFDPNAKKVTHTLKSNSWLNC
# Chain of MMP-2 (P08253 110-660): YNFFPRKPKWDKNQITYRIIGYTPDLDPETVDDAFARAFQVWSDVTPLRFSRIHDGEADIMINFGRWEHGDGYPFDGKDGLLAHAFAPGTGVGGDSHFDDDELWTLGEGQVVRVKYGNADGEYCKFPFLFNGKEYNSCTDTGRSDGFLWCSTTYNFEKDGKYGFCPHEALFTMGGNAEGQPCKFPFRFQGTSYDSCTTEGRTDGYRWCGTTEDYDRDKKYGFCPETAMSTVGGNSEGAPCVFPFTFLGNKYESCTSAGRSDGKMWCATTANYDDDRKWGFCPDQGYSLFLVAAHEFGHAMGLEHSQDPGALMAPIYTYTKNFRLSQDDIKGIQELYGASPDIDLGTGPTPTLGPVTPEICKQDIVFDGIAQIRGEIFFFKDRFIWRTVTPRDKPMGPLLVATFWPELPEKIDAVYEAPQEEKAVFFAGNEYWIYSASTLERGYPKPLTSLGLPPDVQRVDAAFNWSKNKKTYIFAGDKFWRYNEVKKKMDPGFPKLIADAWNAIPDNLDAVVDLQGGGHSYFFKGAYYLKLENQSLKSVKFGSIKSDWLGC
# T1 sequence (P14780 107-707 limits assumed): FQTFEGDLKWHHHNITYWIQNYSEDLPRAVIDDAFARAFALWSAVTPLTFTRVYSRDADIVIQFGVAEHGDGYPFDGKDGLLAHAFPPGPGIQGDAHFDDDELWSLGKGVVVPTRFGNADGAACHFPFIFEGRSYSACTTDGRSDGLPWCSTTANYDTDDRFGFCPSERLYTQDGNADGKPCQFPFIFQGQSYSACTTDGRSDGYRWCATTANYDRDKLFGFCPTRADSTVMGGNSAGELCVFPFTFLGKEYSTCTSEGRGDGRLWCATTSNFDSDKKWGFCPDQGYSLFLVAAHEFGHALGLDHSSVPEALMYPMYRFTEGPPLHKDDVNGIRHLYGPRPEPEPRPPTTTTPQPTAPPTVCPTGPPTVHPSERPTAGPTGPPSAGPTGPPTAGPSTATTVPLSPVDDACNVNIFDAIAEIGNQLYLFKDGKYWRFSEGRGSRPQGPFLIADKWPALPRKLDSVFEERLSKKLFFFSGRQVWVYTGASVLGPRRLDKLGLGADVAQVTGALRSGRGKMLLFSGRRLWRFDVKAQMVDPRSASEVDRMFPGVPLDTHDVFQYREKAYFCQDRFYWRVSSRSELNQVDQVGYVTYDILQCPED
Structure (SMILES),IC50 (MMP-9) [nM],IC50 (MMP-2) [nM],IC50 (MMP-3) [nM],melting point [°C],activity as anti-inflammatory analgesic agents [1]
O=C(c1ccc(-c2ccc(Cl)cc2)cc1)C1CCC(CSC(=S)N2CCCC2)C1C(=O)O (centres unmarked) [Example 3],67,21,31,177 to 178,
CC(CC(=O)c1ccc(-c2ccccc2)cc1)C(=O)O (centres unmarked) [XLVII],,,,,inactive
O=C(c1ccc(-c2ccc(Cl)cc2)cc1)C1CCC(Cn2c(=O)oc3ccccc32)C1C(=O)O (centres unmarked) [Example 6],4.3,0.5,4.1,,
"O=C(CC(CCn1nnc2ccccc2c1=O)C(=O)O)c1ccc(-c2ccc(Cl)cc2)cc1 (single isomer, unassigned) [Example 21, α-[2-(4′-chloro[1,1′-biphenyl]-4-yl)-2-oxoethyl]-4-oxo-1,2,3,-Benzotriazine-3(4H)-butanoic acid]",2.1,1.5,6.5,,
O=C(O)CC(C(=O)c1ccc(-c2ccccc2)cc1)c1ccccc1 (centres unmarked) [LXXVII],,,,,inactive
O=C(CC(C(=O)O)c1ccccc1)c1ccc(-c2ccccc2)cc1 (centres unmarked) [XLIX],,,,,inactive
O=C(O)C1[C@H](COCOCc2ccccc2)CC[C@@H]1C(=O)c1ccc(-c2ccc(Cl)cc2)cc1 (relative stereo) [Example 2],24,9.5,17,112 to 130,
"O=C(CC(CCn1ncc2ccccc2c1=O)C(=O)O)c1ccc(-c2ccc(Cl)cc2)cc1 (stereo not drawn) [Example 18, R/S α-[2-(4′-chloro[1,1′-biphenyl]-4-yl)-2-oxoethyl]-1-oxo-2(1H)-phthalazinebutanoic acid]",32,13,59,,
O=C(c1ccc(-c2ccc(Cl)cc2)cc1)C1CCC(Cn2ncc3ccccc3c2=O)C1C(=O)O (centres unmarked) [Example 5],2.3,1.4,4.2,,
"O=C(CC(CCn1nnc2ccccc2c1=O)C(=O)O)c1ccc(-c2ccc(Cl)cc2)cc1 (single isomer, unassigned) [Example 20, α-[2-(4′-chloro[1,1′-biphenyl]-4-yl)-2-oxoethyl]-4-oxo-1,2,3,-Benzotriazine-3(4H)-butanoic acid]",84,57,320,,
